Laboratory results reported in US7192977B2, “Benz-indole and benzo-quinoline derivatives as prodrugs for tumor treatment” (School of Pharmacy, priority 2001, dated 2007).
Marks after values point to notes of the source that are not given here.

Tested on: Chinese Hamster Ovary (CHO) cell
Test: MTT cytotoxicity in CHO cells of the test compound with and without activation by NADPH-supplemented rat liver microsomes
Assay type: cell-based
Details: for IC50: Cricetulus griseus, CHO, cells exposed 24 hours, MTT, mean+sd for three experiments
Description: Test compound activation by CYP enzymes was carried out using NADPH supplemented rat liver microsomes. Incubation mixtures comprised microsomal protein (1 mg/ml), reduced-nicotinamide adenine dinucleotide phosphate (NADPH, 10 mM) and phosphate buffer (pH7.4, 100 mM). Test compound (0.01–100 μM final concentration) in DMSO (20 μl) was added to the microsomal incubation mixtures (0.5 ml) and incubated for 60 min at 37 C. Control incubates contained test compound and microsomal incubation mixture terminated at 0 time. All incubations were terminated by addition of an equal volume of ice-cold acetonitrile and microfuged for 3 min. Aliquots of the supernatant were added to cells in culture and cytotoxicity determined as described below.
Chinese Hamster Ovary (CHO) cell were grown in MEM supplemented with 10% dialysed FBS and G418 (400 μg/ml). All cells were seeded at an initial density of 1000 cells/well in 96-well-plates, incubation at 37° C. for 24 hours. Aliquots (0.1 ml) of the test compound/microsomal/acetonitrile supernatnant was then added to the CHO cells. Cells were then incubated for 24 hours at 37° C., 5% CO2. After this time period MTT (50 μl; 2 mg/ml stock solution) was added to each well and cells were incubated for a further 4 hours. During this time period MTT, a hydrogen acceptor tetrazolium salt, is reduced to formazan dye by mitochondrial dehydrogenase of viable cells. The media was aspirated from cells and DMSO (100 μl/well) added to solubilise the coloured formazan dye. Absorbance of the formazan dye in the 96-well-plates was then determined at 550 nm. The effect of microsomal activation by the test compound on the arrest of CHO cell growth could be determined by comparing the IC50 (concentration that inhibited cell growth by 50%) with and without microsomal incubation.

Compound: COc1ccc2[nH]c(C(=O)N3CC(CCl)c4c3ccc3ccccc43)cc2c1 (stereo not drawn) [Compound 1.8, 1-(Chloromethyl)-3-[(5-methoxyindol-2-yl)carbonyl]-1,2-dihydro-3H-benz[e]indole]
- IC50 (control incubate terminated at 0 time (no microsomal activation)): 1500 ± 530 nM
- IC50 (supernatant after 60 min incubation with NADPH fortified rat liver microsomes): 100 nM
- AF (activity factor, ratio of IC50 cytotoxicity values) (ratio of CHO IC50 without and with microsomal activation): 15.0*
